Data set [1] is described as follows: molar enthalpy of vaporization or sublimation. As to conditions: 298.15 K, Calvet microcalorimetry.
A short description of data set [2]: Molar enthalpy of transition or fusion. As to conditions: Crystal; DSC.
For data set [3] the following is noted: Crystal; DTA.

Molecules are shown by their SMILES. ± gives the expanded uncertainty stated by the source.

On to `COc1c(Cl)cccc1Cl` [2,6-dichloroanisole], for which, in data set [1] (Liquid), the molar enthalpy was 13.4 ± 0.335 kcal/mol.

As to `COc1ccc(Cl)cc1Cl` [2,4-dichloro-1-methoxybenzene], the molar enthalpy in data set [1] (Liquid) is 15 ± 0.335 kcal/mol.

In the case of `COc1cc(Cl)cc(Cl)c1` [3,5-dichloroanisole], the “Molar enthalpy of transition or fusion” value in data set [2] was found to be 5.66 ± 0.148 kcal/mol. Besides, the molar enthalpy in data set [1] (Crystal) was found to be 18.9 ± 0.717 kcal/mol. For the same molecule, the Normal melting temperature in data set [3] stood at 37.37 ± 0.39 °C.

For the molecule `COc1cccc(Cl)c1Cl` [1,2-dichloro-3-methoxybenzene], in data set [2], the “Molar enthalpy of transition or fusion” value amounted to 5.27 ± 0.12 kcal/mol. For the same molecule, the molar enthalpy in data set [1] (Crystal) was determined as 20 ± 0.717 kcal/mol. Also, the Normal melting temperature in data set [3] was determined as 30.99 ± 0.39 °C.
